For two molecules, Ki results are on record in article PMC7754465, “Multiparameter Kinetic Analysis for Covalent Fragment Optimization by Using Quantitative Irreversible Tethering (qIT)” (Chembiochem, 2020).

The experiment deals with T1, Cdk2(ES) (Homo sapiens, UniProt P24941, C177A/F80C).
T1 construct: GST (N, cleaved yes); made in house; host or cells: E. coli Tuner(DE3)
Put plainly: concentration-dependent qIT with hyperbolic regression (Ki, kinact). Format: binding. Particulars: roughly linear dependency up to 500 μM. The procedure:
Next we sought to carry out comprehensive kinetic analysis of the covalent binding to better understand the covSAR trends. Accordingly, the concentration dependency for the rate of reaction between Cdk2(ES) and key acrylamides 1, 6, 9 and 11 were determined using qIT (Figure 7c). To maintain pseudo‐first‐order reaction kinetics and stay within the solubility limits of the fragments, ligands were titrated from 25 to 500 μM. […] Indeed, comparing the binding conformations of the merged (9 and 11) and parent (1 and 6) fragments, we observe a subtle shift in the position of the core scaffolds and the orientation of the acrylamide link that likely explains the jump in potency that resulted from fragment merging. Overall, comparing acrylamides 9 and 11, we observe in a 3.7‐fold increase in k inact/K i and a 4.3‐fold increase in REF, and the consistency between these two orthogonal metrics of covalent fragment potency is encouraging for future applications of qIT to covalent fragment optimization.
H. Intact-protein mass spectrometry
Protein-mass data were obtained on a Waters micromass LC-TOF mass spectrometer in positive ion mode using electrospray ionization. Samples were chromatographed using an Acquity UPLC protein BEH C4 column (2.1 mm × 50 mm, 2.7 µm) with a flow rate of 30 µL/min. The injection volume was 5 µL of protein solution (5 µM) in 30 mM ammonium bicarbonate buffer con-taining 0.5% formic acid and 20% MeOH. The gradient used was 100% mobile phase A (0.1% formic acid in water/MeOH (19:1)) ramping linearly to 90% mobile phase B (0.1% formic acid in MeOH) over 5 minutes. The spectra were acquired from 500 to 2500 Da and deconvolution was performed with MassLynx (Waters), using the maximum entropy algorithm, over a mass range of […] with a mass step of 0.75. […]
Cdk2(WT) or Cdk2(ES) (1 mg) was sequentially incubated with aliquots of CAK1 (3 × 0.05 mg) at r.t. for 4 hours at a time in 1.5 mL of a 30 mM Tris/HCl buffer (pH 7.5) containing 10 mM MgCl2, 10 mM ATP and 3 mM DTT. As CAK1 appeared to be-come rapidly inactivated in the presence of pCdk2, three repetitions were required to drive the reaction to completion. The resulting solution was incubated with 50 µL of glutathione-Sepharose beads and filtered to remove remaining CAK1.
Kinase assays were performed by coupling the conversion of ATP into ADP to the oxidation of NADH (Abs = 340 nm) into NAD+, mediated by lactate dehydrogenase (LDH) and pyruvate kinase (PK). WT, mutant or ligand-conjugated pCdk2 (12.5 or 50 nM) was preincubated with Cyclin A2 (20 nM) in a buffer containing 50 mM Tris/HCl, 10 mM MgCl2, 5 mM DTT, 1 mM phosphoenolpyruvate, 0.24 mM NADH, 10 U mL-1 LDH, 14 U mL-1 PK and 5% DMSO at 37 °C for 30 minutes. Reactions were initiated by addition of 0.5 mM ATP and 0.24 mM substrate peptide (PKTPKKAKKL) and the absorbance at 340 nm was moni-tored for two hours. Assays were conducted at 37 °C and carried out in clear 384-well plates (Nunc) using a SpectraMax i3x plate reader (Molecular Devices) with a final volume of 20 µL in each well. After plotting Abs 340 against time, enzyme velocity was measured from the gradient during the linear phase of product accumulation.
Q. Concentration dependent qIT
The rate of reaction (kobs) for the reaction between each acrylamide (25, 50, 125, 250 and 500 µM) with Cdk2(ES) (5 µM) was determined us qIT (see D. Rate Determination by qIT) in duplicate. The average kobs was plotted against acrylamide concen-tration and hyperbolic regression analysis performed using Prism 8.0 software (GraphPad) to derive kinact and Ki.

By Ki is commonly meant a dissociation constant, usually derived from enzyme kinetics or from competition with a known ligand. A high value points to weaker binding. `C=CC(=O)N1CCCc2cc(C(=O)OC)ccc21` [compound 1] yielded a Ki above 1000 µM.
In the case of `C=CC(=O)N1CCN(CC)c2ccccc21` [compound 6], the Ki is above 1000 µM.
